Where a name gives a salt, the structure may show the parent alone.
Target: T1, FGFR2 kinase (Homo sapiens, UniProt P21802, N549H)
T1 construct: purchased Millipore 14-742
Test: fluorescent ELISA FGFR2 kinase assay (biochemical)
Conditions: FGFR2 (N549H); read-out: Biochemical data (IC50-μM) FGFR2 (N549H)
Method: The enzymatic assays described herein are conducted according to the following procedures from commercially available reagents. In one, non limiting, example, a fluorescent ELISA assay is used to identify and characterize inhibitors of FGFR2 kinase as described herein. This heterogeneous assay utilizes a biotinylated peptide with a tyrosine motif as a substrate and an anti-phospho-tyrosine antibody to measure phosphorylation of the substrate. […] The reaction is incubated for 60 minutes. As the reaction proceeds, FGFR2 phosphorylates tyrosines in the peptide. […] Peptides are captured for 30 minutes at room temperature, the phosphorylation of peptides continues during this phase. The reaction is stopped by washing the streptavidin-coated plate 6 times with TBST. […] Unbound anti-phospho-tyrosine antibody is removed by washing the streptavidin-coated plate 6 times with TBST. […] Unbound secondary antibody is removed by washing the streptavidin-coated plate 6 times with TBST.

T1 sequence (P21802 456-770 N549H limits assumed): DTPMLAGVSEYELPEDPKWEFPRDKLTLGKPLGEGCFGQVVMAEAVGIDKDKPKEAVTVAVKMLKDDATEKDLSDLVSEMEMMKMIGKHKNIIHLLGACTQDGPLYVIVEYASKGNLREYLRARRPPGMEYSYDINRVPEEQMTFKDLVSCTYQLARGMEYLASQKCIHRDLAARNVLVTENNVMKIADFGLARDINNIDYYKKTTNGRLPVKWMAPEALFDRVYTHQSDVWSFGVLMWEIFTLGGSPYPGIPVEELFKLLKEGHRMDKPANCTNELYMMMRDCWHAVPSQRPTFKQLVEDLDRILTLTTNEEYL

Going from `COCCN1CCN(CCc2ccc(Nc3ncc4c(n3)-c3ccccc3[C@H](c3ccc(Cl)c(Cl)c3)C4)cc2)CC1` [Example 115, (S)-6-(3,4-dichlorophenyl)-N-(4-(2-(4-(2-methoxyethyl)piperazin-1-yl)ethyl)phenyl)-5,6-dihydrobenzo[h]quinazolin-2-amine hydrochloride] to `Brc1ccc([C@H]2Cc3cnc(Nc4ccc(CCN5CCCCC5)cc4)nc3-c3ccccc32)cc1` [Example 108, (R)-6-(4-bromophenyl)-N-(4-(2-(piperidin-1-yl)ethyl)phenyl)-5,6-dihydrobenzo[h]quinazolin-2-amine hydrochloride salt], the IC50 rises from 0.211 µM to 0.354 µM (1.7-fold).

Going from `CCCCN(C)CCc1ccc(Nc2ncc3c(n2)-c2ccccc2[C@@H](c2ccc(Br)cc2)C3)cc1` [Example 107, (R)-6-(4-bromophenyl)-N-(4-(2-(butyl(methyl)amino)ethyl)phenyl)-5,6-dihydrobenzo[h]quinazolin-2-amine hydrochloride salt] to `CCCCN(C)CCc1cc(Nc2ncc3c(n2)-c2ccccc2[C@H](c2ccccc2F)C3)ccc1F` [Example 172, (R)-N-(3-(2-(butyl(methyl)amino)ethyl)-4-fluorophenyl)-6-(2-fluorophenyl)-5,6-dihydrobenzo[h]quinazolin-2-amine hydrochloride salt], the IC50 falls from 0.423 µM to 0.0922 µM (4.6-fold). The second is the more potent here.

Compared with `CCCCNCCc1cc(Nc2ncc3c(n2)-c2ccccc2[C@H](c2ccccc2F)C3)ccc1F` [Example 171, (R)-N-(3-(2-(butylamino)ethyl)-4-fluorophenyl)-6-(2-fluorophenyl)-5,6-dihydrobenzo[h]quinazolin-2-amine hydrochloride salt], `OCCc1cc(Nc2ncc3c(n2)-c2ccccc2[C@H](c2ccccc2F)C3)ccc1F` [Example 169] is 9.2-fold higher in IC50: 0.0355 µM for the first, 0.327 µM for the second.

In the case of `OCc1cccc(Nc2ncc3c(n2)-c2ccccc2[C@H](c2ccccc2F)C3)c1` [Example 176, (R)-(3-(6-(2-fluorophenyl)-5,6-dihydrobenzo[h]quinazolin-2-ylamino)phenyl)methanol], the IC50 is reported as 0.109 µM.

Test system: SNU-16
Test: MTS assay, SNU-16
Assay type: cell-based
Conditions: Homo sapiens, SNU-16, SNU-16; read-out: MTS cell kill data (IC50-μM) SNU-16
Method: Cells were maintained at 37° C., 5% CO2 in DMEM media supplemented with 1% fetal bovine serum, penicillin/streptomycin and fungizone (Invitrogen). Cells were seeded into 96-well tissue culture plates at 3000 per well and cultured at 37° C. for 18 hours. Test compounds were dissolved and diluted to 300× in DMSO then diluted 1:40 in DMEM.

Going from `COCCN1CCN(CCc2ccc(Nc3ncc4c(n3)-c3ccccc3[C@H](c3ccc(Cl)c(Cl)c3)C4)cc2)CC1` [Example 115, (S)-6-(3,4-dichlorophenyl)-N-(4-(2-(4-(2-methoxyethyl)piperazin-1-yl)ethyl)phenyl)-5,6-dihydrobenzo[h]quinazolin-2-amine hydrochloride] to `COCCN1CCN(CCc2ccc(Nc3ncc4c(n3)-c3ccccc3[C@@H](c3ccc(F)c(F)c3)C4)cc2)CC1` [Example 90, (R)-6-(3,4-difluorophenyl)-N-(4-(2-(4-(2-methoxyethyl)piperazin-1-yl)ethyl)phenyl)-5,6-dihydrobenzo[h]quinazolin-2-amine hydrochloride], the IC50 rises from 3.03 µM to 14.6 µM (4.8-fold). The first is the more potent here.

`CN(CCc1ccc(Nc2ncc3c(n2)-c2ccccc2[C@H](c2ccc(F)c(F)c2)C3)cc1)C1CCCCC1` [Example 85, (S)-N-(4-(2-(cyclohexyl(methyl)amino)ethyl)phenyl)-6-(3,4-difluorophenyl)-5,6-dihydrobenzo[h]quinazolin-2-amine hydrochloride] and `CN(CCc1ccc(Nc2ncc3c(n2)-c2ccccc2[C@H](c2ccc(Cl)c(Cl)c2)C3)cc1)C1CCCCC1` [Example 106, (S)-N-(4-(2-(cyclohexyl(methyl)amino)ethyl)phenyl)-6-(3,4-dichlorophenyl)-5,6-dihydrobenzo[h]quinazolin-2-amine hydrochloride salt] are within 1.5-fold of each other in IC50: 3.88 µM for the first, 3.05 µM for the second.

`Brc1cccc([C@@H]2Cc3cnc(Nc4ccc(CCN5CCCCC5)cc4)nc3-c3ccccc32)c1` [Example 78, (S)-6-(3-bromophenyl)-N-(4-(2-(piperidin-1-yl)ethyl)phenyl)-5,6-dihydrobenzo[h]quinazolin-2-amine hydrochloride] and `Fc1ccc([C@H]2Cc3cnc(Nc4ccc(CCN5CCCCC5)cc4)nc3-c3ccccc32)cc1F` [Example 91, (R)-6-(3,4-difluorophenyl)-N-(4-(2-(piperidin-1-yl)ethyl)phenyl)-5,6-dihydrobenzo[h]quinazolin-2-amine hydrochloride] are within 1.5-fold of each other in IC50: 4.85 µM for the first, 6.32 µM for the second.

`CN(C)CCc1ccc(Nc2ncc3c(n2)-c2ccccc2[C@H](c2ccc(F)c(F)c2)C3)cc1` [Example 87, (S)-6-(3,4-difluorophenyl)-N-(4-(2-(dimethylamino)ethyl)phenyl)-5,6-dihydrobenzo[h]quinazolin-2-amine hydrochloride] and `CN1CCN(CCc2ccc(Nc3ncc4c(n3)-c3ccccc3[C@H](c3ccc(F)c(F)c3)C4)cc2)CC1` [Example 88, (S)-6-(3,4-difluorophenyl)-N-(4-(2-(4-methylpiperazin-1-yl)ethyl)phenyl)-5,6-dihydrobenzo[h]quinazolin-2-amine hydrochloride] are within 1.5-fold of each other in IC50: 7.78 µM for the first, 9.86 µM for the second.

Going from `COCCN1CCN(CCc2ccc(Nc3ncc4c(n3)-c3ccccc3[C@H](c3ccc(Br)cc3)C4)cc2)CC1` [Example 97, (S)-6-(4-bromophenyl)-N-(4-(2-(4-(2-methoxyethyl)piperazin-1-yl)ethyl)phenyl)-5,6-dihydrobenzo[h]quinazolin-2-amine hydrochloride salt] to `COCCN1CCN(CCc2ccc(Nc3ncc4c(n3)-c3ccccc3[C@H](c3ccc(F)cc3)C4)cc2)CC1` [Example 100, (S)-6-(4-fluorophenyl)-N-(4-(2-(4-(2-methoxyethyl)piperazin-1-yl)ethyl)phenyl)-5,6-dihydrobenzo[h]quinazolin-2-amine], the IC50 rises from 4.2 µM to 7.36 µM (1.8-fold). The first is the more potent here.

`Clc1ccc([C@@H]2Cc3cnc(Nc4cccc(CCN5CCCCC5)c4)nc3-c3ccccc32)cc1Cl` [Example 167, (S)-6-(3,4-dichlorophenyl)-N-(3-(2-(piperidin-1-yl)ethyl)phenyl)-5,6-dihydrobenzo[h]quinazolin-2-amine hydrochloride] and `CCCCN(C)CCc1ccc(Nc2ncc3c(n2)-c2ccccc2[C@H](c2ccc(F)cc2)C3)cc1` [Example 99, (S)-N-(4-(2-(butyl(methyl)amino)ethyl)phenyl)-6-(4-fluorophenyl)-5,6-dihydrobenzo[h]quinazolin-2-amine] are within 1.5-fold of each other in IC50: 4.21 µM for the first, 6.16 µM for the second.

Test system: not given
Test: not given
Conditions: not given

Compared with `COCCN1CCN(CCc2ccc(Nc3ncc4c(n3)-c3ccccc3[C@H](c3ccc(F)cc3)C4)cc2)CC1` [Example 100, (S)-6-(4-fluorophenyl)-N-(4-(2-(4-(2-methoxyethyl)piperazin-1-yl)ethyl)phenyl)-5,6-dihydrobenzo[h]quinazolin-2-amine], `COCCN1CCN(CCc2ccc(Nc3ncc4c(n3)-c3ccccc3[C@H](c3ccc(Cl)cc3)C4)cc2)CC1` (as salt: hydrochloride) [Example 113, (S)-6-(4-chlorophenyl)-N-(4-(2-(4-(2-methoxyethyl)piperazin-1-yl)ethyl)phenyl)-5,6-dihydrobenzo[α]quinazolin-2-amine hydrochloride] is higher in melting point: 195 to 198 °C for the first, 261 to 263 °C for the second.

Compared with `OCc1cccc(Nc2ncc3c(n2)-c2ccccc2[C@H](c2ccccc2F)C3)c1` [Example 176, (R)-(3-(6-(2-fluorophenyl)-5,6-dihydrobenzo[h]quinazolin-2-ylamino)phenyl)methanol], `CCCCNCCc1cc(Nc2ncc3c(n2)-c2ccccc2[C@H](c2ccccc2F)C3)ccc1F` (as salt: hydrochloride) [Example 171, (R)—N-(3-(2-(butylamino)ethyl)-4-fluorophenyl)-6-(2-fluorophenyl)-5,6-dihydrobenzo[h]quinazolin-2-amine hydrochloride salt] is higher in melting point: 158 to 159 °C for the first, 180 to 185 °C for the second.

First: Brc1cccc(C2Cc3cnc(Nc4ccc(CCN5CCN(c6ccccc6)CC5)cc4)nc3-c3ccccc32)c1 (stereo not shown) [Example 43, 6-(3-bromophenyl)-N-(4-(2-(4-phenylpiperazin-1-yl)ethyl)phenyl)-5,6-dihydrobenzo[h]quinazolin-2-amine]
Second: COCCN1CCN(CCc2ccc(Nc3ncc4c(n3)-c3ccccc3C(c3cccc(Br)c3)C4)cc2)CC1 (stereo not shown) [Example 32, 6-(3-bromophenyl)-N-(4-(2-(4-(2-methoxyethyl)piperazin-1-yl)ethyl)phenyl)-5,6-dihydrobenzo[h]quinazolin-2-amine]
The melting point of the first is higher: 113 to 115 °C for the first, 105 to 107 °C for the second.

First: CCCCN(C)CCc1ccc(Nc2ncc3c(n2)-c2ccccc2[C@H](c2ccc(Cl)c(Cl)c2)C3)cc1 (as salt: hydrochloride) [Example 105, (S)—N-(4-(2-(butyl(methyl)amino)ethyl)phenyl)-6-(3,4-dichlorophenyl)-5,6-dihydrobenzo[h]quinazolin-2-amine hydrochloride salt]
Second: CCCCN(C)CCc1ccc(Nc2ncc3c(n2)-c2ccccc2[C@H](c2ccc(F)c(F)c2)C3)cc1 (as salt: hydrochloride) [Example 96, (S)—N-(4-(2-(butyl(methyl)amino)ethyl)phenyl)-6-(3,4-difluorophenyl)-5,6-dihydrobenzo[h]quinazolin-2-amine hydrochloride salt]
The melting point of the first is lower: 135 to 145 °C for the first, 145 to 150 °C for the second.

Compared with `CC(C)(C)OC(=O)N1CCC(Nc2ncc3c(n2)-c2ccccc2C(c2ccc(Cl)c(Cl)c2)C3)CC1` (stereo not shown) [Example 19, tert-butyl 4-(6-(3,4-dichlorophenyl)-5,6-dihydrobenzo[h]quinazolin-2-ylamino)piperidine-1-carboxylate], `CC(C)c1ccc2c(c1)C(c1ccc(Cl)c(Cl)c1)Cc1cnc(N)nc1-2` (stereo not shown) [Example 20, 6-(3,4-dichlorophenyl)-8-isopropyl-5,6-dihydrobenzo[h]quinazolin-2-amine] is higher in melting point: 94 to 96 °C for the first, 174 to 176 °C for the second.

First: CCCCN(C)CCc1ccc(Nc2ncc3c(n2)-c2ccccc2[C@H](c2ccc(Br)cc2)C3)cc1 (as salt: hydrochloride) [Example 98, (S)-6-(4-bromophenyl)-N-(4-(2-(butyl(methyl)amino)ethyl)phenyl)-5,6-dihydrobenzo[h]quinazolin-2-amine hydrochloride salt]
Second: Clc1ccc(C2Cc3cnc(Nc4ccc(CCN5CCCCC5)cc4)nc3-c3ccccc32)c(Cl)c1 (stereo not shown) (as salt: hydrochloride) [Example 76, 6-(2,4-dichlorophenyl)-N-(4-(2-(piperidin-1-yl)ethyl)phenyl)-5,6-dihydrobenzo[h]quinazolin-2-amine hydrochloride]
The melting point of the first is lower: 170 to 175 °C for the first, 225 to 230 °C for the second.

Source: patent US8357694B2, “Substituted 5,6-dihydro-6-phenylbenzo[F]isoquinolin-2-amine compounds” (ArQule, Inc., priority 2008, dated 2013)
